{
  "source": "patent US20210052566A1",
  "about": "“METHODS FOR TREATING HEPATITIS B VIRUS (HBV) INFECTION” (INSERM (INSTITUT NATIONAL DE LA SANTÉ ET DE LA RECHERCHE …, priority 2018, published 2021)",
  "test_system": "HBV genotype D",
  "assay": "HBV replication in persistently infected primary human hepatocytes (PHH)",
  "format": "cell-based, Hepatitis B virus",
  "settings": "10 microM",
  "excerpt": "FIG. 9. Effect of 1C8 on persistently infected primary human hepatocytes. Two different batches of PHH from two different donors were used in these experiments (Batch 1: panels A, B, and C; Batch 2: panels D, and E). A) PHH were infected with HBV genotype D at a MOI of 100 vge/cell for 4 days before being treated trice every 2-3 days with indicated molecules at a concentration of 10 microM. B) Intracellular total RNA were extracted from cells and subjected to RT-qPCR to detect HBV pgRNA and total HBV RNA. C) HBs and HBe secreted antigens in supernatant were quantified by ELISA. D) PHH were infected with HBV genotype D at a MOI of 100 vge/cell. 6 days after the infection, cells were treated five times with indicated molecules at a concentration of 10 microM. Supernatant was harvested after each treatment and cells were harvested at day 13 post infection. E) HBe and HBs secreted antigens in supernatant were quantified by ELISA. Results are the mean+SD of n=3 (panels A, B, and C) or n=4 (panels D and E).\nPrimary human hepatocytes (PHH) were freshly prepared from human liver resections obtained from the Centre Léon Bérard (Lyon) with French ministerial authorizations as previously described (Leycluse and Alexandre, 2010). […]\nSecreted HBe and HBs antigens and intracellular HBV RNA were analyzed as described in EXAMPLE 1.",
  "data": [
    {"smiles": "Cn1ccc(=O)c(C(=O)Nc2nsc3ccc([N+](=O)[O-])cc23)c1", "note": "[1C8, 4-pyridinonebenzisothiazole carboxamide]", "values": [
      {"measurement": "amount of intracellular viral RNAs (total and pgRNA)", "result": "significant reduction"},
      {"measurement": "decrease of secreted viral antigens HBe and HBs (viral replication)", "setting": "two donors, MOI 100 vge/cell", "result": "> 60", "unit": "%"}
    ]}
  ]
}
